Test results taken from patent US6083917A, “Methods and compositions for the identification, characterization and inhibition of farnesyltransferase” (Board of Regents, The University of Texas System, priority 1992, dated 2000).
Residues, ends and D or L forms follow the SMILES beside them. No end group written: not given here. *: point of attachment. Octanoyl = CCCCCCCC(=O)*

Molecular target: T1, rat brain farnesyltransferase (Rattus norvegicus, UniProt Q02293+Q04631)
Experiment: Farnesyltransferase assay: transfer of [3H]farnesyl from [3H]FPP to p21H-ras (TCA filter assay), competition by peptides
Assay type: biochemical
Design: Brains from 50 male Sprague-Dawley rats (100-150 g) were homogenized; from tissue; host or cells: rat brain (male Sprague-Dawley rats)
Conditions: Concentration giving 50% inhibition of farnesyltransferase (text, FIG. 14 / Table II), Example II; partially purified rat brain enzyme, p21H-ras acceptor
Protocol: Farnesyltransferase activity was determined by measuring the amount of ^3 H-farnesol transferred from all-trans ^3 H]farnesyl pyrophosphate ([^3 H]FPP) to p21^H-ras protein. The standard reaction mixture contained the following concentrations of components in a final volume of 25 μl: 50 mM Tris-chloride (pH 7.5), 50 μM ZnCl2, 20 mM KCl, 1 mM DTT, and 40 μM p21^H-ras. The mixture also contained 10 pmoles of [^3 H]FPP (~30,000 dpm/pmol) and 1.8-3.5 μg of partially purified farnesyltransferase (see below). After incubation for 1 hour at 37° C. in 12×75-mm borosilicate tubes, the reaction was stopped by addition of 0.5 ml of 4% SDS and then 0.5 ml of 30% trichloroacetic acid (TCA).
The tubes were vortexed and left on ice for 45-60 min, after which 2 ml of a 6% TCA/2% SDS solution were added. The mixture was filtered on a 2.5-cm glass fiber filter with a Hoefer filtration unit (FH 225). The tubes were rinsed twice with 2 ml of the same solution, and each filter was washed five times with 2 ml of 6% TCA, dried, and counted in a scintillation counter. One unit of activity is defined as the amount of enzyme that transfers 1 pmol of [^3 H]farnesol from [^3 H]FPP into acid-precipitable p21^H-ras per hour under the standard conditions.
The standard assay involved measuring the amount of [^3 H]farnesyl transferred from all-trans [^3 H]FPP to recombinant human p21^H-ras as described in Example I. Each reaction mixture contained the following concentrations of components in a final volume of 25 μl: 50 mM Tris-chloride (pH 7.5), 50 μM ZnCl2, 30 mM KCl, 1 mM DTT, 30 or 40 μM p21^H-ras, 15 pmol [^3 H]FPP (12-23,000 dpm/pmol), 4 to 7.5 μg of partially purified farnesyltransferase (Mono Q fraction, see Example I), and the indicated concentration of competitor peptide added in 3 μl of 10 mM DTT. […] This blank value was subtracted before calculating "% of control" values.
The amount of [^3 H]farnesyl transferred from all-trans-[^3 H]farnesyl pyrophosphate to recombinant p21^H-ras was measured in a filter assay as previously described (62).

T1 sequence (Q02293 whole entry, one chain of several): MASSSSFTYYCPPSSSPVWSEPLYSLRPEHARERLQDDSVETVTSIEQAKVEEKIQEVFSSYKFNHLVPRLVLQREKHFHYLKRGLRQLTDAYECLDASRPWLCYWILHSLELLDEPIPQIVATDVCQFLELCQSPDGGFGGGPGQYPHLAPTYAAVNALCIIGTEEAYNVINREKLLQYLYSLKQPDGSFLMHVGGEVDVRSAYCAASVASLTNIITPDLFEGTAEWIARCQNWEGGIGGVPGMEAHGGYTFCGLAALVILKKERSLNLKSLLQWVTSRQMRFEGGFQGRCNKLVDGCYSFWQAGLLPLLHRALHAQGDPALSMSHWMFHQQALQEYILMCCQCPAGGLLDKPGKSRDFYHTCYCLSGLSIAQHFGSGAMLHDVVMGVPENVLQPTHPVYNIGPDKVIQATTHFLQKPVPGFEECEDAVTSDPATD

| IC50 [nM] | Compound |
| --- | --- |
| 150 | CC[C@H](C)[C@H](NC(=O)[C@H](C)NC(=O)[C@@H](N)CS)C(=O)N[C@@H](CCSC)C(=O)O [CAIM] (H-CAIM-OH) |
| 150 | CC[C@H](C)[C@H](NC(=O)[C@@H](NC(=O)[C@@H](N)CS)C(C)C)C(=O)N[C@@H](CCSC)C(=O)O [CVIM] (H-CVIM-OH) |

Same assay, conditions: Table II; partially purified rat farnesyltransferase, p21H-ras acceptor; seven concentrations 0.03 to 100 μM; read-out: Concentration for 50% Inhibition

| IC50 [nM] | Compound |
| --- | --- |
| 150 | CC[C@H](C)[C@H](NC(=O)[C@H](C)NC(=O)[C@@H](N)CS)C(=O)N[C@@H](CCSC)C(=O)O [CAIM] (H-CAIM-OH) |
| 150 | CSCC[C@H](NC(=O)[C@@H](NC(=O)[C@@H](NC(=O)[C@@H](N)CS)C(C)C)C(C)C)C(=O)O [CVVM] (H-CVVM-OH) |
| 150 | CC[C@H](C)[C@H](NC(=O)[C@@H](NC(=O)[C@@H](N)CS)[C@@H](C)CC)C(=O)N[C@@H](CCSC)C(=O)O [CIIM] (H-CIIM-OH) |
| 150 | CC[C@H](C)[C@H](NC(=O)[C@@H](NC(=O)[C@@H](N)CS)C(C)C)C(=O)N[C@@H](CCSC)C(=O)O [CVIM] (H-CVIM-OH) |
| 200 | CC[C@H](C)[C@H](NC(=O)[C@H](CO)NC(=O)[C@@H](N)CS)C(=O)N[C@@H](CCSC)C(=O)O [CSIM] (H-CSIM-OH) |

Same assay, conditions: Table III; six concentrations 0.03 to 10 μM; read-out: Concentration for 50% Inhibition of Farnesylation of p21H-ras

| Compound | IC50 [nM] |
| --- | --- |
| CSCC[C@H](NC(=O)[C@H](Cc1c[nH]c2ccccc12)NC(=O)[C@@H](NC(=O)[C@H](CS)NC(C)=O)C(C)C)C(=O)O [N-AcCVWM] (Ac-CVWM-OH) | 3700 |
| CC[C@H](C)[C@H](NC(=O)[C@@H](NC(=O)[C@H](CS)NC(C)=O)C(C)C)C(=O)N[C@@H](CCSC)C(=O)O [N-AcCVIM] (Ac-CVIM-OH) | 150 |
| CSCC[C@H](NC(=O)[C@H](Cc1ccccc1)NC(=O)[C@@H](NC(=O)[C@H](CS)NC(=O)[C@@H](N)CS)C(C)C)C(=O)O [CCVFM] (H-CCVFM-OH) | 440 |
| CC[C@H](C)[C@H](NC(=O)[C@@H](NC(=O)[C@@H](N)CS)C(C)C)C(=O)N[C@@H](CCSC)C(=O)O [CVIM] (H-CVIM-OH) | 150 |
| CSCC[C@H](NC(=O)[C@H](Cc1ccccc1)NC(=O)[C@@H](NC(=O)[C@H](CS)NC(=O)[C@H](CS)NC(C)=O)C(C)C)C(=O)O [N-AcCCVFM] (Ac-CCVFM-OH) | 110 |

Further lines, results first:

| IC50 [nM] | Compound |
| --- | --- |
| 1100 | KCVFM [KCVFM] |
| 300 | Ac-KCVFM [N-AcKCVFM] |
| 430 | Ac-GCVFM [N-AcGCVFM] |
| 250 | CSCC[C@H](NC(=O)[C@H](Cc1ccccc1)NC(=O)[C@@H](NC(=O)[C@H](CS)NC(C)=O)C(C)C)C(=O)O [N-AcCVFM] (Ac-CVFM-OH) |
| 320 | CSCC[C@H](NC(=O)[C@H](Cc1c[nH]c2ccccc12)NC(=O)[C@@H](NC(=O)[C@@H](N)CS)C(C)C)C(=O)O [CVWM] (H-CVWM-OH) |
| 200 | Ac-PCVFM [N-AcPCVFM] |
| 350 | CCCCCCCC(=O)N[C@@H](CS)C(=O)N[C@H](C(=O)N[C@@H](Cc1ccccc1)C(=O)N[C@@H](CCSC)C(=O)O)C(C)C [N-Octanoyl-CVFM] (Octanoyl-CVFM-OH) |
| 240 | Ac-HCVFM [N-AcHCVFM] |
| 230 | Ac-SCVFM [N-AcSCVFM] |
| 1900 | Ac-DCVFM [N-AcDCVFM] |
| 2400 | Ac-ECVFM [N-AcECVFM] |
| 1400 | Ac-MCVFM [N-AcMCVFM] |

Same assay, conditions: substrate saturation, FIG. 2A and 2B

| Compound | Concentration that gave half-maximal reaction velocity |
| --- | --- |
| CC(C)=CCC/C(C)=C/CC/C(C)=C/COP(=O)(O)OP(=O)(O)O [[^3 H]farnesyl pyrophosphate, farnesyl pyrophosphate, reference compound] | approximately 0.5 μM |

Molecular target: T1, rat brain farnesyltransferase
Experiment: Binding of prenyl pyrophosphates to protein farnesyltransferase (gel filtration)
Design: Protein farnesyltransferase was purified to apparent homogeneity from rat brain homogenates; from tissue; host or cells: rat brain
Conditions: purified enzyme
Text: Transfer of the enzyme-bound farnesyl group to the bound p21^H-ras required Mg^2+. […] It also was not transferred to a modified p21^H-ras containing COOH-terminal leucine, a protein that was shown previously to be a good substrate for a rat brain geranylgeranyltransferase (35). The inventors conclude that the protein farnesyltransferase is a metalloenzyme that most likely contains Zn^2+ at the peptide-binding site. It thus resembles certain metallopeptidases, including carboxy-peptidase A and the angiotensin-converting enzyme. Strategies previously developed to screen for inhibitors of those enzymes will likely aid in the search for inhibitors of the protein farnesyltransferase.

| Compound | Affinity for the prenyl pyrophosphate binding site |
| --- | --- |
| CC(C)=CCC/C(C)=C/CC/C(C)=C/CC/C(C)=C/COP(=O)(O)OP(=O)(O)O [Geranylgeranyl pyrophosphate] | affinity equal to that of farnesyl pyrophosphate |

Molecular target: T1, rat brain farnesyltransferase
Experiment: Farnesyltransferase assay: transfer of [3H]farnesyl from [3H]FPP to p21H-ras (TCA filter assay), competition by peptides
Assay type: biochemical
Design: Brains from 50 male Sprague-Dawley rats (100-150 g) were homogenized; from tissue; host or cells: rat brain (male Sprague-Dawley rats)
Conditions: Concentration giving 50% inhibition of farnesylation of p21H-ras, FIG. 23A; Mono Q fraction, 0.5 μM [3H]farnesyl pyrophosphate, 30 min at 37° C.

| IC50 [nM] | Compound |
| --- | --- |
| 270 | CSCC[C@H](NC(=O)[C@H](Cc1ccccc1)NC(=O)[C@@H](NC(=O)[C@H](CS)NC(C)=O)C(C)C)C(=O)O [N-AcCVFM] (Ac-CVFM-OH) |
